{"source": "patent US20050282154A1", "about": "(priority 2003, published 2005)", "key": {"[1]": {"tested_on": "S1 domain of the SARS-CoV S protein", "format": "binding"}, "[2]": {"tested_on": "SARS-CoV S protein-expressing 293 T cells and ACE-2-expressing 293 T cells", "format": "cell-based, human"}}, "data": [{"substance": "soluble ACE-2", "values": [{"measurement": "blocking of association of S1-Ig (S1 domain) with Vero E6 cells", "setting": "[1]", "result": "blocked association"}, {"measurement": "blocking of syncytia formation mediated by the SARS-CoV S protein", "setting": "[2]", "result": "partially blocked"}]}]}
